Positions count from the first letter of the chain named.
What was measured:
[1] = target: T1, chABCD1 (chimeric ABCD1) (Homo sapiens, UniProt P33897, R152A); assay: substrate-stimulated ATPase assay (colorimetric Pi release); assay type: biochemical; conditions: 5 μM C22:0-CoA, 2 mM ATP, 2 mM MgCl2, LMNG + CHS, pH 7.5, 37 °C
T1 construct: single polypeptide: N-terminal FLAG tag, PMP-4 residues 1-65 replacing human ABCD1 residues 1-63, then human ABCD1 64-745; HEK293F; homodimer; LMNG/CHS for assays, digitonin for cryo-EM; with PMP-4 (peroxisomal membrane protein related, ABCD1 homolog, Caenorhabditis elegans; N-terminal segment fused to the target chain)
T1 sequence (P33897 64-745 R152A): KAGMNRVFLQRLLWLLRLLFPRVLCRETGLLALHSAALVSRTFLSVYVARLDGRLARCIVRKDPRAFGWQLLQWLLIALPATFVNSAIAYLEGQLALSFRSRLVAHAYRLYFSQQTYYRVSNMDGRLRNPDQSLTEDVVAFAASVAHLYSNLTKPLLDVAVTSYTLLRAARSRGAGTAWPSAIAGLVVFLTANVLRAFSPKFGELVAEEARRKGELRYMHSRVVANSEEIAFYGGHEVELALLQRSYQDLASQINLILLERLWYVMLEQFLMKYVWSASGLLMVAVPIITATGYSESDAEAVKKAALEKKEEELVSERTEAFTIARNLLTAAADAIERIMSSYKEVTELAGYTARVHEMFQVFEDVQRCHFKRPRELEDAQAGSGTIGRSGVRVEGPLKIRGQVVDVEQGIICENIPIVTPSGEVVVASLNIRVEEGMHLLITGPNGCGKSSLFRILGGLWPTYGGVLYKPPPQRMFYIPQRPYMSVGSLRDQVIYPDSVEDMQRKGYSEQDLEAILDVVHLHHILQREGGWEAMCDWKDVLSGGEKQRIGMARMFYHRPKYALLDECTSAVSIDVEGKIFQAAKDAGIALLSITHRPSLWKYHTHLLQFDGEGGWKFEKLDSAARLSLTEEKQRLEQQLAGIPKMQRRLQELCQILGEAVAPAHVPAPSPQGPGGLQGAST

[2] = target: T2, chABCD1 (chimeric ABCD1) (Homo sapiens, UniProt P33897, Y337F); assay: as above; assay type: biochemical; conditions: 5 μM C22:0-CoA, 2 mM ATP, 2 mM MgCl2, LMNG + CHS, pH 7.5, 37 °C
T2 construct: single polypeptide: N-terminal FLAG tag, PMP-4 residues 1-65 replacing human ABCD1 residues 1-63, then human ABCD1 64-745; HEK293F; homodimer; LMNG/CHS for assays, digitonin for cryo-EM; with PMP-4 (peroxisomal membrane protein related, ABCD1 homolog, Caenorhabditis elegans; N-terminal segment fused to the target chain)
T2 sequence (P33897 64-745 Y337F): T1 sequence (P33897 64-745 R152A) with A89R, Y274F

CCCCCCCCCCCCCCCCCCCCCC(=O)SCCNC(=O)CCNC(=O)[C@H](O)C(C)(C)COP(=O)(O)OP(=O)(O)OC[C@H]1O[C@@H](n2cnc3c(N)ncnc32)[C@H](O)[C@@H]1OP(=O)(O)O [C22:0-CoA]
relative ATPase activity [1]: displayed significantly decreased substrate-simulated ATPase activity, compared to the wild-type
relative ATPase activity [2]: displayed significantly decreased substrate-simulated ATPase activity, compared to the wild-type

From paper PMC9177597, “Structural basis of substrate recognition and translocation by human very long-chain fatty acid transporter ABCD1” (Nature Communications, 2022)
